The text below walks through data of the Kinase Knowledgebase extract (Sharma et al. 2016).

Structures are written as SMILES.

EGFR (human), sequence (P00533 whole entry, looked up): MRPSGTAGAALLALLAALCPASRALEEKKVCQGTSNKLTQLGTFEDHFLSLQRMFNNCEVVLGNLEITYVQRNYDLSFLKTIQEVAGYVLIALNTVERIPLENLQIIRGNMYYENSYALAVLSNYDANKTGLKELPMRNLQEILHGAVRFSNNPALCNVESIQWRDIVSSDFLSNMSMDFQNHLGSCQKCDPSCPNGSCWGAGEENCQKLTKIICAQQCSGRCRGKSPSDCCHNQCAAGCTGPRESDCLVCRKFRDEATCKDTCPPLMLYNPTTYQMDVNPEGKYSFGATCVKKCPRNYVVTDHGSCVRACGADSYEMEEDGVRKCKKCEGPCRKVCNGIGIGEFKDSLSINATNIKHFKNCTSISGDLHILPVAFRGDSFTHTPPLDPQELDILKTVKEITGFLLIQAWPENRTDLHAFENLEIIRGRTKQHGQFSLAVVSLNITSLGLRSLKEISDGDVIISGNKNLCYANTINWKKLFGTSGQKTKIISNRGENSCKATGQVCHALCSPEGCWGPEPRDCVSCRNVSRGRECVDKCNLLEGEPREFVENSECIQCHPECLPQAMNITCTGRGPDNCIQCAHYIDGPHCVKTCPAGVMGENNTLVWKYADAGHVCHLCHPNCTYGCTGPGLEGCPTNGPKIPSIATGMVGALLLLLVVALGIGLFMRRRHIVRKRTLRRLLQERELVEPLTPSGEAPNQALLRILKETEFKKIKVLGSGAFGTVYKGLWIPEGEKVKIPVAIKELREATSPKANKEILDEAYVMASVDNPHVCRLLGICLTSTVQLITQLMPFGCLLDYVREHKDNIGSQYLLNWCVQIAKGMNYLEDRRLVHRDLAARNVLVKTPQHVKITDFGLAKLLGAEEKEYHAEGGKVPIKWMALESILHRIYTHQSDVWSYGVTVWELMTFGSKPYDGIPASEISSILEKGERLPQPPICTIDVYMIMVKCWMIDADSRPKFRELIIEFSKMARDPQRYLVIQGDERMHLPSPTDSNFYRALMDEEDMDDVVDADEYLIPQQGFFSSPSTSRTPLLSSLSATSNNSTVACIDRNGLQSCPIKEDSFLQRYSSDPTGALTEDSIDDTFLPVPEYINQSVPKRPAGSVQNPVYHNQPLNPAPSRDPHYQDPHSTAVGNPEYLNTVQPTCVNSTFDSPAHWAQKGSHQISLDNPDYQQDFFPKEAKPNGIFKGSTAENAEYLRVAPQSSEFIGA

The test concerns the target EGFR (human) (UniProt P00533).
By IC50 is commonly meant the concentration at which inhibition is half-maximal. For the compound `COc1cc2ncnc(Nc3ccc(F)c(Cl)c3)c2cc1CCCCCC(=O)NO`, the IC50 was at most 100 nM.

`COCCOc1cc2ncnc(Nc3ccc(F)c(Cl)c3)c2cc1NC(=O)CCCCC(=O)NO` displayed an IC50 of at most 100 nM.

In turn, `O=C(CCCCOc1ccc2ncnc(Nc3ccc(F)c(Cl)c3)c2c1)NO` registered an IC50 of at most 100 nM.

For the compound `COc1cc2ncnc(NCc3ccc(F)c(F)c3)c2cc1OCCCCCCC(=O)NO`, the IC50 was 100 to 1000 nM.

As for `C#Cc1cccc(Nc2ncnc3cc(OCCCCCCC(=O)NO)c(OCCOC)cc23)c1`, the IC50 is at most 100 nM.

Regarding `C#Cc1cccc(Nc2ncnc3ccc(OCCCCCCC(=O)NO)cc23)c1`, the IC50 lay within 100 to 1000 nM.

`C#Cc1cccc(Nc2ncnc3cc(OC)c(NC(=O)CCCC(=O)NO)cc23)c1` showed an IC50 of at most 100 nM.

Regarding `COc1cc2ncnc(N[C@H](C)c3ccc(F)cc3)c2cc1OCCCCCCC(=O)NO`, the IC50 fell in the range of 100 to 1000 nM.

In turn, `C#Cc1cccc(Nc2ncnc3cc(O)c(OCCCCCCC(=O)NO)cc23)c1` displayed an IC50 of at most 100 nM.

`COc1cc2ncnc(Nc3ccc(F)c(Cl)c3)c2cc1OCCCCCCN(O)C(N)=O` came in with an IC50 of at most 100 nM.

The compound `C#Cc1cccc(Nc2ncnc3cc(OC)c(OCCC(=O)NO)cc23)c1` gave an IC50 of at most 100 nM.

`C#Cc1cccc(Nc2ncnc3ccc(OCCCC(=O)NO)cc23)c1` showed an IC50 of 100 to 1000 nM.

Compound `C#Cc1cccc(Nc2ncnc3ccc(OCCCCC(=O)NO)cc23)c1` registered an IC50 of at most 100 nM.

`COc1ccc([C@@H](C)Nc2ncnc3cc(OC)c(OCCCCCCC(=O)NO)cc23)cc1`: the IC50 is at least 10000 nM.

As for `COc1cc2ncnc(NCc3ccc(F)c(Cl)c3)c2cc1OCCCCCCC(=O)NO`, the IC50 is at most 100 nM.

`C#Cc1cccc(Nc2ncnc3cc(OC)c(OCCCCCC(=O)NO)cc23)c1` displayed an IC50 of at most 100 nM.

`COc1cc2ncnc(Nc3ccc(F)c(Cl)c3)c2cc1NC(=O)CCCCCCC(=O)NO` showed an IC50 of at most 100 nM.

In turn, `COCCOc1cc2ncnc(Nc3ccc(F)c(Cl)c3)c2cc1OCCCCCCC(=O)NO` displayed an IC50 of at most 100 nM.

For the compound `O=C(CCOc1ccc2ncnc(Nc3ccc(F)c(Cl)c3)c2c1)NO`, the IC50 was at most 100 nM.

As for `COc1cc2ncnc(Nc3ccc(F)c(Cl)c3)c2cc1OCCOc1ccc(C=CC(=O)NO)cc1`, the IC50 was at most 100 nM.

`O=C(CCCCCNCc1ccc(-c2ccc3ncnc(Nc4ccc(OCc5cccc(F)c5)c(Cl)c4)c3c2)o1)NO` yielded an IC50 of at most 100 nM.

`COc1cc2ncnc(Nc3ccc(F)c(Cl)c3)c2cc1OCCCC(=O)NO` displayed an IC50 of at most 100 nM.

`C#Cc1cc(Nc2ncnc3cc(OC)c(OCCCCCCC(=O)NO)cc23)ccc1O` showed an IC50 of at most 100 nM.

`COCCOc1cc2ncnc(Nc3ccc(OCc4cccc(F)c4)c(Cl)c3)c2cc1OCCCCCCC(=O)NO` had an IC50 of at most 100 nM.

`C#Cc1cccc(Nc2ncnc3ccc(OCCCCCC(=O)NO)cc23)c1` gave an IC50 of 100 to 1000 nM.

On to `COCCOc1cc2c(Nc3ccc(F)c(Cl)c3)ncnc2cc1OCCCCCCC(=O)NO`, for which the 50% inhibitory concentration (IC50) is at most 100 nM.

The compound `COc1cc2ncnc(Nc3ccc(F)c(Cl)c3)c2cc1NC(=O)Nc1ccc(C(=O)NO)cc1` displayed an IC50 of at most 100 nM.

As to `O=C(CCCCCOc1ccc2ncnc(Nc3ccc(F)c(Cl)c3)c2c1)NO`, the IC50 is at most 100 nM.

As to `C#Cc1cccc(Nc2ncnc3ccc(OCC(=O)NO)cc23)c1`, the IC50 was at most 100 nM.

`Nc1cc(Br)ccc1NC(=O)COc1ccc2ncnc(Nc3ccc(F)c(Cl)c3)c2c1`: the IC50 is 100 to 1000 nM.

In the case of `COc1cc2ncnc(NCCc3ccccc3)c2cc1OCCCCCCC(=O)NO`, the IC50 lay within 100 to 1000 nM.

As for `C#Cc1cccc(Nc2ncnc3cc(OC)c(OCC(=O)NO)cc23)c1`, the IC50 was at most 100 nM.

Turning to `COc1cc2ncnc(Nc3ccc(F)c(Cl)c3)c2cc1SCCCCC(=O)NO`, the IC50 is at most 100 nM.

On to `COc1cc2ncnc(Nc3ccc(F)c(Cl)c3)c2cc1OCCCCC(=O)NO`, for which the IC50 is at most 100 nM.

On to `COCCOc1cc2ncnc(Nc3ccc(F)c(Cl)c3)c2cc1NC(=O)CCCCCCC(=O)NO`, for which the IC50 was at most 100 nM.

`O=C(CCCCCCOc1ccc2ncnc(Nc3ccc(OCc4cccc(F)c4)c(Cl)c3)c2c1)NO` returned an IC50 of at most 100 nM.

The compound `COc1cc2ncnc(Nc3ccc(F)c(Cl)c3)c2cc1SCCCCCCC(=O)NO` showed an IC50 of at most 100 nM.

The compound `O=C(CCCCCCCNCc1ccc(-c2ccc3ncnc(Nc4ccc(OCc5cccc(F)c5)c(Cl)c4)c3c2)o1)NO` showed an IC50 of at most 100 nM.

In turn, `COc1cc2ncnc(Nc3ccc(F)c(Cl)c3)c2cc1OCCCCCC(=O)NO` yielded an IC50 of at most 100 nM.

In the case of `COc1cc2ncnc(Nc3ccc(F)c(Cl)c3)c2cc1OCCCCCCC(=O)NO`, the IC50 was at most 100 nM.

Regarding `COc1cc2ncnc(N[C@H](C)c3ccc(Cl)cc3)c2cc1OCCCCCCC(=O)NO`, the IC50 lay within 100 to 1000 nM.

`O=C(COc1ccc2ncnc(Nc3ccc(F)c(Cl)c3)c2c1)NO` registered an IC50 of at most 100 nM.

Turning to `C#Cc1cccc(Nc2ncnc3cc(OCCCCCCC(=O)NO)c(OC)cc23)c1`, the IC50 is at most 100 nM.

Regarding `C#Cc1cccc(Nc2ncnc3cc(OC)c(OCCCC(=O)NO)cc23)c1`, the IC50 was at most 100 nM.

Take `COc1cc2ncnc(Nc3ccc(F)c(Cl)c3)c2cc1OCCC(=O)NO`: the half-inhibitory concentration (IC50) was at most 100 nM.

Turning to `C#Cc1cc(Nc2ncnc3cc(OCCOC)c(OCCCCCCC(=O)NO)cc23)ccc1F`, the IC50 was at most 100 nM.

The compound `C[C@@H](Nc1ncnc2ccc(OCCCCCC(=O)NO)cc12)c1ccccc1` returned a half-maximal inhibitory concentration (IC50) of 100 to 1000 nM.

For the compound `C#Cc1cccc(Nc2ncnc3cc(OCCOC)c(OCCCCCCC(=O)NO)cc23)c1`, the IC50 was at most 100 nM.

As to `COc1cc2ncnc(Nc3ccc(F)c(Cl)c3)c2cc1OCCOc1ccc(CC(=O)NO)cc1`, the half-inhibitory concentration (IC50) is at most 100 nM.

With `COc1cc2ncnc(NCc3ccccc3)c2cc1OCCCCCCC(=O)NO`, the IC50 is at most 100 nM.

Consider `COc1cc2ncnc(NCc3cccc(Br)c3)c2cc1OCCCCCCC(=O)NO`, for which the IC50 lay in the range of 100 to 1000 nM.

In turn, `C[C@@H](Nc1ncnc2ccc(OCCCCCCC(=O)NO)cc12)c1ccccc1` returned an IC50 of 100 to 1000 nM.

`COc1cc2ncnc(Nc3ccc(F)c(Cl)c3)c2cc1NC(=O)CCCC(=O)NO` gave an IC50 of at most 100 nM.

Turning to `COc1cc2ncnc(Nc3ccc(OCc4cccc(F)c4)c(Cl)c3)c2cc1OCCCCCCC(=O)NO`, the IC50 was at most 100 nM.

`COc1cc2ncnc(N[C@H](C)c3ccccc3)c2cc1OCCCCCC(=O)NO` displayed an IC50 of at most 100 nM.

On to `C#Cc1cccc(Nc2ncnc3cc(OC)c(NC(=O)CCCCCCC(=O)NO)cc23)c1`, for which the IC50 is at most 100 nM.

`C#Cc1cc(Nc2ncnc3cc(OC)c(OCCCCCCC(=O)NO)cc23)ccc1F` displayed an IC50 of at most 100 nM.

With `O=C(CCCCCCOc1ccc2ncnc(Nc3ccc(F)c(Cl)c3)c2c1)NO`, the IC50 is at most 100 nM.

`COc1cc2ncnc(Nc3ccc(F)c(Cl)c3)c2cc1OCC(=O)NO` had an IC50 of at most 100 nM.

In turn, `COCCOc1cc2ncnc(Nc3ccc(F)c(Cl)c3)c2cc1NC(=O)CCCC(=O)NO` registered an IC50 of at most 100 nM.

As to `COc1cc2ncnc(Nc3ccc(F)c(Cl)c3)c2cc1OCCOc1ccc(C(=O)NO)cc1`, the IC50 is at most 100 nM.

The compound `C#Cc1cccc(Nc2ncnc3cc(OC)c(NC(=O)CCCCC(=O)NO)cc23)c1` had an IC50 of at most 100 nM.

Take `COc1cc2ncnc(Nc3ccc(F)c(Cl)c3)c2cc1OCCCCCCC(=O)N(C)O`: the IC50 is at most 100 nM.
